Results as given in US10807944B2, “HDAC inhibitor compounds and methods of treatment” (priority 2014, dated 2020).

Biological target: T1, HDAC2 (Homo sapiens (Human), UniProt Q92769)
Experiment: HDAC2 in vitro inhibition, dose response
Assay type: biochemical
Details: Table 2; read-out: HDAC 2 IC50

T1 sequence (Q92769 whole entry): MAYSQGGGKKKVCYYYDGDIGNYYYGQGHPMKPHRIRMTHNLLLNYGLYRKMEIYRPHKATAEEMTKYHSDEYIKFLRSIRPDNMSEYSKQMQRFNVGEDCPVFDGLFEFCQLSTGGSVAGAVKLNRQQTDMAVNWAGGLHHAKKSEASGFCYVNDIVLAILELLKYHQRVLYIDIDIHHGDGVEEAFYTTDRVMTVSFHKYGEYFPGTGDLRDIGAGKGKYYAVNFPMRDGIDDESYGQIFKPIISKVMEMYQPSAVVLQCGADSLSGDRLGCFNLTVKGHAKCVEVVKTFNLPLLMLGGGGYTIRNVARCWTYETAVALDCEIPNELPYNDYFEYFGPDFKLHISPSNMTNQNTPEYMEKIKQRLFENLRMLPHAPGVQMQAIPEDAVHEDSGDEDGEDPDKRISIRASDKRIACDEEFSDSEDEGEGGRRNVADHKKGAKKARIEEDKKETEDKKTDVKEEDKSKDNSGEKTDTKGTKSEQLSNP

Compound	IC50 [µM]
O=C(NNCCCC1CCCC1)c1ccc2ccccc2c1 [RLS2-249, N′-(3-cyclopentylpropyl)-2-naphthohydrazide]	> 50
CCNNC(=O)c1ccc2ccccc2c1 [RLS2-240, N′-ethyl-2-naphthohydrazide]	> 50
NNC(=O)c1ccc2ccccc2c1 [RLS2-243, 2-naphthohydrazide]	> 50
CCCCNNC(=O)c1ccc(OC)c(OC)c1 [RLS3-11, N′-butyl-3,4-dimethoxybenzohydrazide]	20.4
CCCCNNC(=O)c1ccccc1 [RLS2-125, N′-butylbenzohydrazide]	> 50
O=C(NNCCc1ccccc1)c1ccc(Br)cc1 [RLS2-138, 4-bromo-N′-phenethylbenzohydrazide]	> 50
N′-butyl-3-fluorobenzohydrazide [RLS2-306]	10.9
Cc1ccc(C(=O)NNC(C)(C)C)cc1 [RLS2-187, N′-tert-butyl-4-methylbenzohydrazide]	> 50
CCCCNNC(=O)c1cc2ccccc2cc1O [RLS2-210, N′-butyl-3-hydroxy-2-naphthohydrazide]	> 50
CCCCNNC(=O)c1cccc(OCC)c1 [RLS2-303, N′-butyl-3-ethoxybenzohydrazide]	> 50

Continued, values first:

IC50 [µM]	Compound
> 50	CCCCNNC(=O)c1ccccc1-c1ccccc1 [RLS3-4, N′-butylbiphenyl-2-carbohydrazide]
7.27	CCCCNNC(=O)c1ccc(-c2cncnc2)cc1 [SR-4369, N′-butyl-4-(pyrimidin-5-yl)benzohydrazide]
6.68	CCCNNC(=O)c1ccc2ccccc2c1 [RLS2-255, N′-propyl-2-naphthohydrazide]
15.1	CCCCNNC(=O)c1ccc(F)cc1 [RLS2-123, N′-butyl-4-fluorobenzohydrazide]
56.7	CCCCNNC(=O)c1cccnc1 [RLS2-289, N′-butylnicotinohydrazide]
3.25	CN(C)c1ccc(C(=O)NNCC2CCCC2)cc1 [RLS2-225, N′-(cyclopentylmethyl)-4-(dimethylamino)benzohydrazide]
21.2	CCCCNNC(=O)c1ccc([N+](=O)[O-])cc1 [RLS2-128, N′-butyl-4-nitrobenzohydrazide]
93.3	CCCCNNC(=O)c1cccc(C(F)(F)F)c1 [RLS3-6, N′-butyl-3-(trifluoromethyl)benzohydrazide]
79.6	CCCCNNC(=O)c1ccccc1F [RLS2-305, N′-butyl-2-fluorobenzohydrazide]
7.4	CCCCNNC(=O)c1ccc(OCC)c(OCC)c1 [RLS3-14, N′-butyl-3,4-diethoxybenzohydrazide]
28.4	O=C(NNCC1CCCC1)c1ccc(Br)cc1 [RLS2-256, 4-bromo-N′-(cyclopentylmethyl)benzohydrazide]

Biological target: T2, HDAC1 (Homo sapiens (Human), UniProt Q13547)
Experiment: HDAC-1 inhibition potency, luminescence readout
Assay type: biochemical
Details: Table 6, luminescence readout
Excerpt: (§1) Compounds were examined for their HDAC inhibitory activity and their effect on cancer cell viability (MDA-MB-231 cells).

T2 sequence (Q13547 whole entry): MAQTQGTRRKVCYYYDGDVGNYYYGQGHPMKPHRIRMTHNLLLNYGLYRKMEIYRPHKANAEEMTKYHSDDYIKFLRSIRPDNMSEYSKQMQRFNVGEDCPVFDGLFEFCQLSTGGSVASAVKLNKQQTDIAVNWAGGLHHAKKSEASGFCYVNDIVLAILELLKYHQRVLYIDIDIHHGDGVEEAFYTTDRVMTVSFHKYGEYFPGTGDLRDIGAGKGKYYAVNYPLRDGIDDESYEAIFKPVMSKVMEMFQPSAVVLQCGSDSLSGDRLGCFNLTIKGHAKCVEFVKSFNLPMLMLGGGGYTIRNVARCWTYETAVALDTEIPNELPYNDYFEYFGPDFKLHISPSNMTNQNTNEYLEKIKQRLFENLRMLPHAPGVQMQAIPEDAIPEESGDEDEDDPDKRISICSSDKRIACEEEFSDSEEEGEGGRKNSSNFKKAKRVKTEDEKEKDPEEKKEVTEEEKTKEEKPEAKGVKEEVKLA

Compound	IC50 [µM]
CCCCNNC(=O)c1ccc(-c2ccccc2)cc1 [SR-3558]	0.09

Biological target: T2, HDAC1
Experiment: HDAC1 in vitro inhibition, dose response
Assay type: biochemical
Details: Table 2; read-out: HDAC 1 IC50

Compound	IC50 [µM]
O=C(NNCCCC1CCCC1)c1ccc2ccccc2c1 [RLS2-249, N′-(3-cyclopentylpropyl)-2-naphthohydrazide]	> 50
CCNNC(=O)c1ccc2ccccc2c1 [RLS2-240, N′-ethyl-2-naphthohydrazide]	> 50
NNC(=O)c1ccc2ccccc2c1 [RLS2-243, 2-naphthohydrazide]	> 50
CCCCNNC(=O)c1ccc(OC)c(OC)c1 [RLS3-11, N′-butyl-3,4-dimethoxybenzohydrazide]	22.2
CCCCNNC(=O)c1ccccc1 [RLS2-125, N′-butylbenzohydrazide]	> 50
O=C(NNCCc1ccccc1)c1ccc(Br)cc1 [RLS2-138, 4-bromo-N′-phenethylbenzohydrazide]	> 50
N′-butyl-3-fluorobenzohydrazide [RLS2-306]	8.63
Cc1ccc(C(=O)NNC(C)(C)C)cc1 [RLS2-187, N′-tert-butyl-4-methylbenzohydrazide]	> 50
CCCCNNC(=O)c1cc2ccccc2cc1O [RLS2-210, N′-butyl-3-hydroxy-2-naphthohydrazide]	> 50
CCCCNNC(=O)c1cccc(OCC)c1 [RLS2-303, N′-butyl-3-ethoxybenzohydrazide]	> 50

Other lines, results leading:

IC50 [µM]	Compound
> 50	CCCCNNC(=O)c1ccccc1-c1ccccc1 [RLS3-4, N′-butylbiphenyl-2-carbohydrazide]
1.24	CCCCNNC(=O)c1ccc(-c2cncnc2)cc1 [SR-4369, N′-butyl-4-(pyrimidin-5-yl)benzohydrazide]
3.5	CCCNNC(=O)c1ccc2ccccc2c1 [RLS2-255, N′-propyl-2-naphthohydrazide]
13.2	CCCCNNC(=O)c1ccc(F)cc1 [RLS2-123, N′-butyl-4-fluorobenzohydrazide]
14.5	CCCCNNC(=O)c1cccnc1 [RLS2-289, N′-butylnicotinohydrazide]
1.76	CN(C)c1ccc(C(=O)NNCC2CCCC2)cc1 [RLS2-225, N′-(cyclopentylmethyl)-4-(dimethylamino)benzohydrazide]
21.3	CCCCNNC(=O)c1ccc([N+](=O)[O-])cc1 [RLS2-128, N′-butyl-4-nitrobenzohydrazide]
35.3	CCCCNNC(=O)c1cccc(C(F)(F)F)c1 [RLS3-6, N′-butyl-3-(trifluoromethyl)benzohydrazide]
72.3	CCCCNNC(=O)c1ccccc1F [RLS2-305, N′-butyl-2-fluorobenzohydrazide]
11.8	CCCCNNC(=O)c1ccc(OCC)c(OCC)c1 [RLS3-14, N′-butyl-3,4-diethoxybenzohydrazide]
8.81	O=C(NNCC1CCCC1)c1ccc(Br)cc1 [RLS2-256, 4-bromo-N′-(cyclopentylmethyl)benzohydrazide]

Test system: HepG2 cells
Experiment: not given
Details: HepG2, 96 h

Compound	growth inhibition for HepG2
CCCCNNC(=O)c1ccccc1 [RLS2-125, N′-butylbenzohydrazide]	little to no growth inhibition

Biological target: T1, HDAC2
Experiment: HDAC-2 inhibition potency, luminescence readout
Assay type: biochemical
Details: Table 6, luminescence readout
Excerpt: as §1

Compound	IC50 [µM]
CCCCNNC(=O)c1ccc(-c2ccccc2)cc1 [SR-3558]	0.8

Test system: MDA-MB-231 cells
Experiment: Cancer cell viability (CellTiter-Glo)
Assay type: cell-based
Details: Homo sapiens, MDA-MB-231, read-out: Cancer cell (MDA-MB-231) killing IC50

Compound	IC50 [µM]
CCCCNNC(=O)c1ccc(-c2ccccc2)cc1 [SR-3558]	12.3

Biological target: HDAC3 (Homo sapiens (Human), UniProt O15379)
Experiment: HDAC3 in vitro inhibition, dose response
Assay type: biochemical
Details: Table 2; read-out: HDAC 3 IC50

Chain of HDAC3 (O15379 whole entry): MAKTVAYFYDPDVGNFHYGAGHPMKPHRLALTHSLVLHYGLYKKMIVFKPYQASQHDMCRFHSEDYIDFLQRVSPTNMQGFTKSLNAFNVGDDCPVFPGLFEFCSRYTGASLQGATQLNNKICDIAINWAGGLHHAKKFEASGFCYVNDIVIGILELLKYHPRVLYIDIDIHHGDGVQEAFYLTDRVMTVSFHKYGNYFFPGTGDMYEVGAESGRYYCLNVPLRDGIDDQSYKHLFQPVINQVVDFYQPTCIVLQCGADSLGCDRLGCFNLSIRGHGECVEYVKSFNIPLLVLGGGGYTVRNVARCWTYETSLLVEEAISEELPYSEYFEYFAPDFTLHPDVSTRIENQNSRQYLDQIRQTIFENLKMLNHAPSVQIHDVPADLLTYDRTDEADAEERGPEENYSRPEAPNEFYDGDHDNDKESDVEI
Chain of HDAC3 (Q9Y618 395-489 partner): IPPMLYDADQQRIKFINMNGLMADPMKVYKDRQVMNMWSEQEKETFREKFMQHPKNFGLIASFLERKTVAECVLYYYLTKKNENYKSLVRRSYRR

Compound	IC50 [µM]
O=C(NNCCCC1CCCC1)c1ccc2ccccc2c1 [RLS2-249, N′-(3-cyclopentylpropyl)-2-naphthohydrazide]	> 50
CCNNC(=O)c1ccc2ccccc2c1 [RLS2-240, N′-ethyl-2-naphthohydrazide]	> 50
NNC(=O)c1ccc2ccccc2c1 [RLS2-243, 2-naphthohydrazide]	> 50
CCCCNNC(=O)c1ccc(OC)c(OC)c1 [RLS3-11, N′-butyl-3,4-dimethoxybenzohydrazide]	4
CCCCNNC(=O)c1ccccc1 [RLS2-125, N′-butylbenzohydrazide]	> 50
O=C(NNCCc1ccccc1)c1ccc(Br)cc1 [RLS2-138, 4-bromo-N′-phenethylbenzohydrazide]	> 50
N′-butyl-3-fluorobenzohydrazide [RLS2-306]	4.77
Cc1ccc(C(=O)NNC(C)(C)C)cc1 [RLS2-187, N′-tert-butyl-4-methylbenzohydrazide]	> 50
CCCCNNC(=O)c1cc2ccccc2cc1O [RLS2-210, N′-butyl-3-hydroxy-2-naphthohydrazide]	> 50
CCCCNNC(=O)c1cccc(OCC)c1 [RLS2-303, N′-butyl-3-ethoxybenzohydrazide]	> 50

Continued, values first:

IC50 [µM]	Compound
> 50	CCCCNNC(=O)c1ccccc1-c1ccccc1 [RLS3-4, N′-butylbiphenyl-2-carbohydrazide]
2.29	CCCCNNC(=O)c1ccc(-c2cncnc2)cc1 [SR-4369, N′-butyl-4-(pyrimidin-5-yl)benzohydrazide]
1.65	CCCNNC(=O)c1ccc2ccccc2c1 [RLS2-255, N′-propyl-2-naphthohydrazide]
1.78	CCCCNNC(=O)c1ccc(F)cc1 [RLS2-123, N′-butyl-4-fluorobenzohydrazide]
4.35	CCCCNNC(=O)c1cccnc1 [RLS2-289, N′-butylnicotinohydrazide]
1.67	CN(C)c1ccc(C(=O)NNCC2CCCC2)cc1 [RLS2-225, N′-(cyclopentylmethyl)-4-(dimethylamino)benzohydrazide]
2.47	CCCCNNC(=O)c1ccc([N+](=O)[O-])cc1 [RLS2-128, N′-butyl-4-nitrobenzohydrazide]
1.88	CCCCNNC(=O)c1cccc(C(F)(F)F)c1 [RLS3-6, N′-butyl-3-(trifluoromethyl)benzohydrazide]
42.4	CCCCNNC(=O)c1ccccc1F [RLS2-305, N′-butyl-2-fluorobenzohydrazide]
0.8	CCCCNNC(=O)c1ccc(OCC)c(OCC)c1 [RLS3-14, N′-butyl-3,4-diethoxybenzohydrazide]
6.98	O=C(NNCC1CCCC1)c1ccc(Br)cc1 [RLS2-256, 4-bromo-N′-(cyclopentylmethyl)benzohydrazide]
